The target in this test is T1, ligand binding domain of human RORγ (A262-S507) (Homo sapiens, UniProt P51449).
T1 construct: made in house; host or cells: E. coli
T1 sequence (P51449 262-507): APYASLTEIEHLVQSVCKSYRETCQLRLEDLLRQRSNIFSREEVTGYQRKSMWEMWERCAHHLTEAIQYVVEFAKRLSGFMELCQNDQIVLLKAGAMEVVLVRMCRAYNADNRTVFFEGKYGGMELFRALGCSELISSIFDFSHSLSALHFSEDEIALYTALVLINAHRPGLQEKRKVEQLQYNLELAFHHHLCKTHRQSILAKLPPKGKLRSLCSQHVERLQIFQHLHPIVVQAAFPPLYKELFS
Nature of the test: General RORγ SPA binding assay (competition with [3H]25-hydroxycholesterol). To be noted: RORγ SPA binding assay, inhibition of [3H]25-hydroxycholesterol binding; read-out: IC50. In a few lines: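 Step one: compound meets 50 nM nickel-purified, His-tagged protein from E. coli for 15 min at room temperature (PBS, 0.5% fatty acid free BSA). Step two: radioligand is added for another 15 min. Step three: SPA beads are added for 30 min before scintillation reading and IC50 fitting.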
As for `CNc1nc(C)nc(C2CCN(C(=O)Cc3c(F)cccc3F)CC2)c1C(=O)NCc1cccc(Cl)c1` [Compound A109], the IC50 amounted to 7.3 nM. On to `Cc1nc(C)c(-c2nnc(-c3ccnc(C(F)(F)F)n3)o2)c(C2CCN(C(=O)Nc3c(F)cccc3F)CC2)n1` [Compound C28, N-(2,6-Difluorophenyl)-4-(2,6-dimethyl-5-{5-[2-(trifluoromethyl)pyrimidin-4-yl]-1,3,4-oxadiazol-2-yl}pyrimidin-4-yl)piperidine-1-carboxamide], for which the IC50 was 65.2 nM. The value for `Cc1nc(C)c(-c2nnc(-c3ccnc(C(F)(F)F)n3)o2)c(C2CCN(C(=O)Nc3ccccc3Cl)CC2)n1` [Compound C29, N-(2-chlorophenyl)-4-(2,6-dimethyl-5-{5-[2-(trifluoromethyl)pyrimidin-4-yl]-1,3,4-oxadiazol-2-yl}pyrimidin-4-yl)piperidine-1-carboxamide] was 158 nM; that for `Cc1ncc(C(F)COc2cccc(C(F)(F)F)n2)c(C2CCN(C(=O)Nc3c(F)cccc3F)CC2)n1` (centres unmarked) [Compound N22, N-(2,6-Difluorophenyl)-4-[5-(1-fluoro-2-{[6-(trifluoromethyl)pyridin-2-yl]oxy}ethyl)-2-methylpyrimidin-4-yl]piperidine-1-carboxamide] was 7 nM; that for `COCC(C)(OCc1cc(C)cc(C)c1)c1cnc(C)nc1C1CCN(C(=O)Cc2c(F)cccc2F)CC1` (centres unmarked) [Compound E1, 2-(2,6-Difluorophenyl)-1-(4-(5-(2-(3,5-dimethylbenzyloxy)-1-methoxypropan-2-yl)-2-methylpyrimidin-4-yl)piperidin-1-yl)ethanone] was 6.3 nM. Next, `Cc1nc(C)c(C(=O)NCc2ccnc(C(F)(F)F)n2)c(C2CCN(C(=O)Cc3c(F)cccc3F)CC2)n1` [Compound A121, 4-{1-[(2,6-Difluorophenyl)acetyl]piperidin-4-yl}-2,6-dimethyl-N-{[2-(trifluoromethyl)pyrimidin-4-yl]methyl}pyrimidine-5-carboxamide]: 58.4 nM. Next, `COc1nc(C)c(-c2nnc(-c3ccnc(C(F)(F)F)n3)o2)c(C2CCN(C(=O)Nc3c(F)cccc3F)CC2)n1` [Compound C61, N-(2,6-Difluorophenyl)-4-[6-methyl-2-(methyloxy)-5-{5-[2-(trifluoromethyl)pyrimidin-4-yl]-1,3,4-oxadiazol-2-yl}pyrimidin-4-yl]piperidine-1-carboxamide]: 1140 nM.

Regarding `Cc1cc(C)cc(CNC(c2cnc(C)nc2C2CCN(C(=O)Cc3c(F)cccc3F)CC2)C(F)(F)F)c1` (centres unmarked) [Compound F7, 2-(2,6-Difluorophenyl)-1-(4-(5-(1-(3,5-dimethylbenzylamino)-2,2,2-trifluoroethyl)-2-methylpyrimidin-4-yl)piperidin-1-yl)ethanone], the IC50 is 9.8 nM.

Turning to `Cc1nc(N)nc(C2CCN(C(=O)Oc3ccc(F)cc3)CC2)c1-c1nnc(-c2ccnc(C(F)(F)F)n2)o1` [Compound C53, 4-Fluorophenyl 4-(2-amino-6-methyl-5-{5-[2-(trifluoromethyl)pyrimidin-4-yl]-1,3,4-oxadiazol-2-yl}pyrimidin-4-yl)piperidine-1-carboxylate], the IC50 came to 37.3 nM. The value for `COc1ncc(C(=O)NCc2ccc(Cl)c(Cl)c2)c(C2CCN(C(=O)Cc3c(F)cccc3F)CC2)n1` [Compound A86, N-(3,4-dichlorobenzyl)-4-(1-(2-(2,6-difluorophenyl)acetyl)piperidin-4-yl)-2-methoxypyrimidine-5-carboxamide] was 7 nM; that for `Cc1ncc(C(=O)NOc2cccc(OC(F)(F)F)c2)c(C2CCN(C(=O)Cc3c(F)cccc3F)CC2)n1` [Compound H4, 4-(1-(2-(2,6-difluorophenyl)acetyl)piperidin-4-yl)-2-methyl-N-(3-(trifluoromethoxy)phenoxy)pyrimidine-5-carboxamide] was 294 nM; that for `C/C(=N\Oc1ccnc(C(F)(F)F)c1)c1cnc(C)nc1C1CCN(C(=O)Nc2c(F)cccc2F)CC1` [Compound B37, N-(2,6-Difluorophenyl)-4-{2-methyl-5-[(1E)-N-{[2-(trifluoromethyl)pyridin-4-yl]oxy}ethanimidoyl]pyrimidin-4-yl}piperidine-1-carboxamide] was 67.6 nM. `Cc1ncc(C(O)(CN=[N+]=[N-])COc2cccc(C(F)(F)F)n2)c(C2CCN(C(=O)Nc3c(F)cccc3F)CC2)n1` (centres unmarked) [Compound N33, 4-{5-[2-Azido-1-hydroxy-1-({[6-(trifluoromethyl)pyridin-2-yl]oxy}methyl)ethyl]-2-methylpyrimidin-4-yl}-N-(2,6-difluorophenyl)piperidine-1-carboxamide]: the IC50 is 2.9 nM. `Cc1nc(N)nc(C2CCN(C(=O)Nc3ccccc3Cl)CC2)c1-c1nnc(-c2ccnc(C(F)(F)F)n2)o1` [Compound C71, 4-(2-Amino-6-methyl-5-{5-[2-(trifluoromethyl)pyrimidin-4-yl]-1,3,4-oxadiazol-2-yl}pyrimidin-4-yl)-N-(2-chlorophenyl)piperidine-1-carboxamide]: the IC50 turned out to be 30.2 nM. Next, `Cc1nc(C)c(-c2nnc(-c3ccnc(C(F)(F)F)n3)o2)c(C2CCN(C(=S)Nc3ccccc3C(F)(F)F)CC2)n1` [Compound C47, 4-(2,6-Dimethyl-5-{5-[2-(trifluoromethyl)pyrimidin-4-yl]-1,3,4-oxadiazol-2-yl}pyrimidin-4-yl)-N-[2-(trifluoromethyl)phenyl]piperidine-1-carbothioamide]: 80.6 nM; `Cc1cc(C)cc(CNC(=O)c2cnc(C)nc2C2C=CN(C(=O)Cc3c(F)cccc3F)CC2)c1` (centres unmarked) [Compound A114, 4-(1-(2-(2,6-Difluorophenyl)acetyl)-1,2,3,4-tetrahydropyridin-4-yl)-N-(3,5-dimethylbenzyl)-2-methylpyrimidine-5-carboxamide]: 3 nM. The value for `Nc1ncc(C(=O)COc2ccnc(C(F)(F)F)n2)c(C2CCN(C(=O)Cc3c(F)cccc3F)CC2)n1` [Compound M5, 1-(2-Amino-4-{1-[(2,6-difluorophenyl)acetyl]piperidin-4-yl}pyrimidin-5-yl)-2-{[2-(trifluoromethyl)pyrimidin-4-yl]oxy}ethanone] was 16.3 nM. Regarding `COc1ncc(C(=O)NCc2cccc(Cl)c2)c(C2CCN(C(=O)Cc3c(F)cccc3F)CC2)n1` [Compound A92, N-(3-chlorobenzyl)-4-(1-(2-(2,6-difluorophenyl)acetyl)piperidin-4-yl)-2-methoxypyrimidine-5-carboxamide], the IC50 turned out to be 10 nM. For `Cc1ncc(C(C)(O)CNc2nccc(C(F)(F)F)n2)c(C2CCN(C(=O)Nc3c(F)cccc3C(F)(F)F)CC2)n1` (centres unmarked) [Compound D22, N-[2-Fluoro-6-(trifluoromethyl)phenyl]-4-[5-(1-hydroxy-1-methyl-2-{[4-(trifluoromethyl)pyrimidin-2-yl]amino}ethyl)-2-methylpyrimidin-4-yl]piperidine-1-carboxamide], the IC50 stood at 76.1 nM.

In the case of `Cc1nc(C)c(-c2nnc(-c3ccnc(C(F)(F)F)n3)o2)c(C2CCN(C(=O)c3c(F)cccc3Cl)CC2)n1` [Compound C27, (2-chloro-6-fluorophenyl)(4-(2,6-dimethyl-5-(5-(2-(trifluoromethyl)pyrimidin-4-yl)-1,3,4-oxadiazol-2-yl)pyrimidin-4-yl)piperidin-1-yl)methanone], the half-maximal inhibitory concentration (IC50) was 461 nM.
